Data as given in patent publication US12351576B2, “FGFR inhibitor, preparation method therefor and application thereof” (Abbisko Therapeutics Co., Ltd., priority 2018, dated 2025).
Where two headings read alike, the source gives them in different places.

Experiments:
FGFR1 = FGFR1 (Homo sapiens (Human), UniProt P11362); assay: In vitro biochemical kinase assay (Caliper Assay), FGFR1; conditions: enzyme 0.25 nM, ATP 382 μM, 20 minutes; read-out: Enzymatic activity IC50(nM) FGFR1
Procedure: (§1) I. In Vitro Biochemical Kinase Assay of FGFR 1˜3
(§2) Caliper Assay was used in the present invention to determine the inhibitory activities of the compounds against FGFR1, FGFR2, and FGFR3. The specific experimental procedure was as follows: • 1. The kinase reaction in the present invention was carried out in 384-well plates, the kinase(Carna) at a certain concentration and ATP at a certain concentration and 1 μM of peptide FAM-P22 (GL Biochem, Cat. No. 112393)) was incubated to react for a certain time at 28° C. in a reaction system consisting of 50 mM HEPES, […], 0.0015% Brij-35 and basic kinase buffer; for FGFR1, the enzyme concentration was 0.25 nM and ATP concentration was 382 μM and the reaction time was 20 minutes; for FGFR2, the enzyme concentration was 2.5 nM, ATP concentration was 1 μM, and the reaction time was 40 minutes; for FGFR3, the enzyme concentration was 8 nM, ATP concentration was 4.7 μM, and the reaction time was 30 minutes: • 2. The reaction was terminated with a stop solution (100 mM HEPES, pH 7.5, 0.2% Caliper coating, reagent, 50 mM EDTA and 0.015% Brij35); • 3. The plate with the terminated kinase reaction was transferred to the Caliper workstation to read the data; • 4. the phosphorylated and unphosphorylated peptides were separated by the Caliper microfluid migration shift technique, and the analyte was transferred by a constant buffer flow through the chip, the migration of the substrate peptide was monitored by the labeled fluorescent signal, and the kinase activity was calculated by the amount of the phosphate-based peptide formed. • 5. IC50 was determined by non-linear regression analysis of percent inhibition at different concentration level of the compound.

[1] = tested on: H1581 lung cancer cells (FGFR1 gene amplification); assay: Cell proliferation assay (Cell Titer Glo), H1581; type: cell-based; conditions: 3 days, CTG, read-out: Cellular IC50 (nM) H1581
Procedure: (§3) II. Cell Proliferation Assay (Cell Titer Glo(CTG) Assay)
(§4) The FGFR signal pathway dependent inhibitory effect of the compound in the present invention on cell proliferation was assessed by survival test using CTG reagent (Promega, 4G7573). Cell lines representative of a variety of tumor types, including H1581 lung cancer cells (FGFR1 gene amplification), Snu-16 gastric cancer cells (FGFR2 gene amplification), and RT112 bladder carcinoma cells (FGFR3-TACC3 fusion) from Nanjing Cobioer Biosciences, were selected for the assay. The specific experimental procedure was as follows: • 1. 90 μL of cells were seeded into a 96-well plate processed with TCM (Costar 43904), and incubated overnight at 37° C. in a 5% CO2 incubator; afterwards, 10 μL of the culture medium containing the compound at 10 fold of its final concentration was added; • 2. The dose-dependent effect was evaluated by a serial dilution of the test compound, starting from 10 μM or a lower concentration. • 3. The cells were incubated at 37° C. under 5% C02 for 3 days, then added 50 μL CTG, and read the data with Envision (Pelkin Elmer) to quantify the ATP level in the cells. The ATP levels in cells with treatment of inhibitor at a variety of concentrations were compared with those in cells of the control group (in which DMSO was added into the medium) to evaluate the compound percent inhibition of cell proliferation/survival. • 4. The compound half growth inhibitory concentration (IC50) was determined in Graphpad Prism by 4-parameter curve fitting.

[2] = tested on: RT112 bladder carcinoma cells (FGFR3-TACC3 fusion); assay: Cell proliferation assay (Cell Titer Glo), RT112; type: cell-based; conditions: Homo sapiens, RT-112, 72 h, 3 days, CTG, read-out: Cellular IC50 (nM) RT112
Procedure: as §3, §4

FGFR2 = FGFR2 (Homo sapiens (Human), UniProt P21802); assay: In vitro biochemical kinase assay (Caliper Assay), FGFR2; conditions: enzyme 2.5 nM, ATP 1 μM, 40 minutes; read-out: Enzymatic activity IC50(nM) FGFR2
Procedure: as §1, §2

[3] = tested on: Snu-16 gastric cancer cells (FGFR2 gene amplification); assay: Cell proliferation assay (Cell Titer Glo), Snu-16; type: cell-based; conditions: Homo sapiens, SNU-16, 72 h, Snu-16 cells, 3 days, CTG, read-out: Cellular IC50 (nM) Sun16
Procedure: as §3, §4

FGFR3 = FGFR3 (Homo sapiens (Human), UniProt P22607); assay: In vitro biochemical kinase assay (Caliper Assay), FGFR3; conditions: enzyme 8 nM, ATP 4.7 μM, 30 minutes; read-out: Enzymatic activity IC50(nM) FGFR3
Procedure: as §1, §2

Chain of FGFR2 (P21802 22-821): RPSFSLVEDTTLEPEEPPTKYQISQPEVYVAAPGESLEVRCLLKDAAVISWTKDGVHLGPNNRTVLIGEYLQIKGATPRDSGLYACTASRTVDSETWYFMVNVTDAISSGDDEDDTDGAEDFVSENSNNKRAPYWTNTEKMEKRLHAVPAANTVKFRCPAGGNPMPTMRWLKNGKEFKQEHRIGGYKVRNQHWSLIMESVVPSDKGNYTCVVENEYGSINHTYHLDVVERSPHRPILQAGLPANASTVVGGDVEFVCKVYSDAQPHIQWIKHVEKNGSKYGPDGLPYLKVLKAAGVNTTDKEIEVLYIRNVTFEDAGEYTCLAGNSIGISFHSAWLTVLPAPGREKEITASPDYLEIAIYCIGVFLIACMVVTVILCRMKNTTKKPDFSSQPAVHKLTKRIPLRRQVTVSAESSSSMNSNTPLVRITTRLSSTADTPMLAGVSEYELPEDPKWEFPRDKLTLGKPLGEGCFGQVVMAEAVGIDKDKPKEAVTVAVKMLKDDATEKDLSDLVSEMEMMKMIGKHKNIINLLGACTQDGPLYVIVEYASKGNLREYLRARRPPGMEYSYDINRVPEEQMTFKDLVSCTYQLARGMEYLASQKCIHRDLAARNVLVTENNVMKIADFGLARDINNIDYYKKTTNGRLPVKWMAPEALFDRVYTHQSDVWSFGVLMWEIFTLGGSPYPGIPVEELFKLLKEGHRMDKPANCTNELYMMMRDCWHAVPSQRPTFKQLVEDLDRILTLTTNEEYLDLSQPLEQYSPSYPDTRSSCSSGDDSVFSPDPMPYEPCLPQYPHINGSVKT
Chain of FGFR3 (P22607 23-806): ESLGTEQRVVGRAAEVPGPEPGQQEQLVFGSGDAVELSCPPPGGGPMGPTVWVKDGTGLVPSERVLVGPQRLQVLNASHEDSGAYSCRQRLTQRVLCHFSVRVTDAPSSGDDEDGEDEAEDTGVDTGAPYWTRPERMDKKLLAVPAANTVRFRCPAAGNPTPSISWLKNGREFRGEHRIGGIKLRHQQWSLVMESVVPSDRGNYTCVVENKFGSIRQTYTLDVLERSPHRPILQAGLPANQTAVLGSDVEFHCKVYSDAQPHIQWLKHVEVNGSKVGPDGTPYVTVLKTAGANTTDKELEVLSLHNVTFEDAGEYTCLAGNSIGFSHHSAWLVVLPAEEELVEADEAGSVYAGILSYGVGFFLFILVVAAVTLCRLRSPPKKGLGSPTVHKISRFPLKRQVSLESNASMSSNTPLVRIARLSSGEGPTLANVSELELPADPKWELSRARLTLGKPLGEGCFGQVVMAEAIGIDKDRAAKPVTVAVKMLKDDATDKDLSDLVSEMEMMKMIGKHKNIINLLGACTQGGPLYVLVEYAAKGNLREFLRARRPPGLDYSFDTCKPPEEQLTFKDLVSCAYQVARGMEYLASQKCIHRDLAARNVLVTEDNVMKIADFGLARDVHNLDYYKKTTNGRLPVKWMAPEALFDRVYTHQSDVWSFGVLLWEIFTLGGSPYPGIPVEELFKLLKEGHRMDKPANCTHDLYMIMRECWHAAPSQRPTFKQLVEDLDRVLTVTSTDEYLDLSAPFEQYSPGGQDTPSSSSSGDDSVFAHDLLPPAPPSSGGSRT
Chain of FGFR1 (P11362 22-822): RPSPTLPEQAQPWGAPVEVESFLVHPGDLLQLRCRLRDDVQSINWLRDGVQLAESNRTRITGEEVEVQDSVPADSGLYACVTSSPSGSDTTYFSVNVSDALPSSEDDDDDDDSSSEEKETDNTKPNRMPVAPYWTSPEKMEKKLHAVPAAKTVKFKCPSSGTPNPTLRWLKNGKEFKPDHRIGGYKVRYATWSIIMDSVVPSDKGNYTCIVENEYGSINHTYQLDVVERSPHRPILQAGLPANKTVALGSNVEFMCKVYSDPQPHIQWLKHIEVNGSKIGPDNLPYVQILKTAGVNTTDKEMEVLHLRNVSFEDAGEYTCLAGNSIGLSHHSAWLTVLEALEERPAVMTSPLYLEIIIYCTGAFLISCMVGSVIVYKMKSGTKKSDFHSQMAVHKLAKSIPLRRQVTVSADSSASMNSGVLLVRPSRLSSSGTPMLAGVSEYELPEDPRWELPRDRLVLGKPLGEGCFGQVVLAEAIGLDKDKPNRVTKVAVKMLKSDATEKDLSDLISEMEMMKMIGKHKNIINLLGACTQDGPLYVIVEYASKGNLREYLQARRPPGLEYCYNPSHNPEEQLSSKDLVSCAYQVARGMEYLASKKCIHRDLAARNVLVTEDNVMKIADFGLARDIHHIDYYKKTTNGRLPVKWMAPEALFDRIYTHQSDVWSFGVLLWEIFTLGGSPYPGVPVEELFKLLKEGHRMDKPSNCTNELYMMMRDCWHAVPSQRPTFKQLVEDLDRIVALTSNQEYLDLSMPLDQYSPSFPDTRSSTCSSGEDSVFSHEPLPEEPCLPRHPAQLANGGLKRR

Compound	IC50 (FGFR1) [nM]	IC50 ([1]; Homo sapiens, NCI-H1581, 72 h) [nM]	IC50 [2] [nM]	IC50 (FGFR2) [nM]	IC50 [3] [nM]	IC50 (FGFR3) [nM]	IC50 ([2]; numeric values) [nM]	IC50 ([3]; numeric values) [nM]	IC50 [1] [nM]
COc1cc(OC)c(Cl)c(-c2cc3cnc(-c4ccc(C5(C#N)CCC5)nc4)cc3n(C3CCOC3)c2=O)c1Cl (stereo not drawn) [Example 16, 1-(5-(3-(2,6-dichloro-3,5-dimethoxyphenyl)-2-oxo-1-(tetrahydrofuran-3-yl)-1,2-dihydro-1,6-naphthyridin-7-yl)pyridin-2-yl)cyclobutane-1-carbonitrile]	50 to 500	50 to 500	50 to 500	10 to 50	10 to 50	–	–	–	–
COc1cc(OC)c(Cl)c(-c2cc3cnc(-c4cnn(C)c4)cc3n(C)c2=O)c1Cl [Example 2, 3-(2,6-dichloro-3,5-dimethoxyphenyl)-1-methyl-7-(1-methyl-1H-pyrazol-4-yl)-1,6-naphthyridin-2(1H)-one]	10 to 50	50 to 500	50 to 500	5 to 10	10 to 50	50 to 500	–	–	–
COc1cc(OC)c(Cl)c(-c2cc3cnc(-c4cnn(CCN5CCOCC5)c4)cc3n(C)c2=O)c1Cl [Example 15, 3-(2,6-dichloro-3,5-dimethoxyphenyl)-1-methyl-7-(1-(2-morpholinoethyl)-1H-pyrazol-4-yl)-1,6-naphthyridin-2(1H)-one]	50 to 500	50 to 500	50 to 500	5 to 10	10 to 50	50 to 500	–	–	–
CCn1c(=O)c(-c2c(Cl)c(OC)cc(OC)c2Cl)cc2cnc(-c3cnn(CCN4CCOCC4)c3)cc21 [Example 10, 3-(2,6-dichloro-3,5-dimethoxyphenyl)-1-ethyl-7-(1-(2-morpholinoethyl)-1H-pyrazol-4-yl)-1,6-naphthyridin-2(1H)-one]	10 to 50	50 to 500	10 to 50	≤ 5	10 to 50	≤ 5	–	–	–
COc1cc(OC)c(F)c(-c2cc3cnc(-c4ccc(C5(C#N)CCC5)nc4)cc3n(C3CCOC3)c2=O)c1F (stereo not drawn) [Example 32, 1-(5-(3-(2,6-difluoro-3,5-dimethoxyphenyl)-2-oxo-1-(tetrahydrofuran-3-yl)-1,2-dihydro-1,6-naphthyridin-7-yl)pyridin-2-yl)cyclobutane-1-carbonitrile]	5 to 10	50 to 500	–	≤ 5	–	–	2.5	10.7	–
CCn1c(=O)c(-c2c(Cl)c(OC)cc(OC)c2Cl)cc2cnc(-c3cnn(C4CN(S(C)(=O)=O)C4)c3)cc21 [Example 11, 3-(2,6-dichloro-3,5-dimethoxyphenyl)-1-ethyl-7-(1-(1-(methylsulfonyl)azetidin-3-yl)-1H-pyrazol-4-yl)-1,6-naphthyridin-2(1H)-one]	10 to 50	50 to 500	–	≤ 5	10 to 50	–	–	–	–
COc1cc(OC)c(Cl)c(-c2cc3cnc(-c4cnn(C)c4)cc3n(CC3CC3)c2=O)c1Cl [Example 4, 1-(cyclopropylmethyl) 3-(2,6-dichloro-3,5-dimethoxyphenyl)-7-(1-methyl-1H-pyrazol-4-yl)-1,6-naphthyridin-2(1H)-one]	10 to 50	50 to 500	–	≤ 5	50 to 500	–	–	–	–
COc1cc(OC)c(Cl)c(-c2cc3cnc(-c4cnn(CCN5CCOCC5)c4)cc3n(C3CCOC3)c2=O)c1Cl (stereo not drawn) [Example 18, 3-(2,6-dichloro-3,5-dimethoxyphenyl)-7-(1-(2-morpholinoethyl)-1H-pyrazol-4-yl)-1-(tetrahydrofuran-3-yl)-1,6-naphthyridin-2(1H)-one]	–	50 to 500	–	–	–	–	4.1	6	–
CCn1c(=O)c(-c2c(F)c(OC)cc(OC)c2F)cc2cnc(-c3cnn(CCN4CCOCC4)c3)cc21 [Example 29, 3-(2,6-difluoro-3,5-dimethoxyphenyl)-1-ethyl-7-(1-(2-morpholinoethyl)-1H-pyrazol-4-yl)-1,6-naphthyridin-2(1H)-one]	5 to 10	50 to 500	–	≤ 5	10 to 50	–	–	–	–

Continued, values first:

IC50 (FGFR1) [nM]	IC50 ([1]; Homo sapiens, NCI-H1581, 72 h) [nM]	IC50 [2] [nM]	IC50 (FGFR2) [nM]	IC50 [3] [nM]	IC50 (FGFR3) [nM]	IC50 ([2]; numeric values) [nM]	IC50 ([3]; numeric values) [nM]	IC50 [1] [nM]	Compound
≤ 5	10 to 50	≤ 5	≤ 5	≤ 5	–	–	–	–	COc1cc(OC)c(F)c(-c2cc3cnc(-c4cnn(C)c4)cc3n(C3CCOC3)c2=O)c1F (stereo not drawn) [Example 28, 3-(2,6-difluoro-3,5-dimethoxyphenyl)-7-(1-methyl-1H-pyrazol-4-yl)-1-(tetrahydrofuran-3-yl)-1,6-naphthyridin-2(1H)-one]
–	50 to 500	≤ 5	–	5 to 10	–	–	–	–	COc1cc(OC)c(F)c(-c2cc3cnc(-c4cnn(CCN5CCOCC5)c4)cc3n(C3CCOC3)c2=O)c1F (stereo not drawn) [Example 35, 3-(2,6-difluoro-3,5-dimethoxyphenyl)-7-(1-(2-morpholinoethyl)-1H-pyrazol-4-yl)-1-(tetrahydrofuran-3-yl)-1,6-naphthyridin-2(1H)-one]
–	10 to 50	≤ 5	–	≤ 5	–	–	–	–	COc1cc(OC)c(F)c(-c2cc3cnc(-c4cnn(CCN5CCOCC5)c4)cc3n(C3CCCC3)c2=O)c1F [Example 34, 1-cyclopentyl-3-(2,6-difluoro-3,5-dimethoxyphenyl)-7-(1-(2-morpholinoethyl)-1H-pyrazol-4-yl)-1,6-naphthyridin-2(1H)-one]
≤ 5	10 to 50	–	≤ 5	≤ 5	–	–	–	–	COc1cc(OC)c(F)c(-c2cc3cnc(-c4cnn(C)c4)cc3n(C3CCCC3)c2=O)c1F [Example 33, 1-cyclopentyl-3-(2,6-difluoro-3,5-dimethoxyphenyl)-7-(1-methyl-1H-pyrazol-4-yl)-1,6-naphthyridin-2(1H)-one]
5 to 10	–	–	≤ 5	5 to 10	≤ 5	–	–	50 to 500	COc1cc(OC)c(Cl)c(-c2cc3cnc(-c4cnn(C)c4)cc3n(C3CCOC3)c2=O)c1Cl (stereo in doubt) [Example 21, (R)-3-(2,6-dichloro-3,5-dimethoxyphenyl)-7-(1-methyl-1H-pyrazol-4-yl)-1-(tetrahydrofuran-3-yl)-1,6-naphthyridin-2(1H)-one]
